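Compound exposure: 48 hours, 5 concentrations, 96-well plates. GI50 marks 50% less growth. TGI is the concentration that stops growth completely.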
Tests used:
Test in all cases: inhibition of tumour cell growth, NCI panel, 48 h
NCI-H522 lung = tested on: NCI-H522 lung
MALME-3M melanoma = tested on: MALME-3M melanoma
MDA-MB-435 = tested on: MDA-MB-435
PC-3 prostate = tested on: PC-3 prostate
IGROV1 ovarian = tested on: IGROV1 ovarian
RXF 393 renal = tested on: RXF 393 renal
TK-10 renal = tested on: TK-10 renal
DU-145 prostate = tested on: DU-145 prostate
SN12C renal = tested on: SN12C renal
A549 NSCLC = tested on: A549 NSCLC
NCI-H460 lung = tested on: NCI-H460 lung
UACC-257 melanoma = tested on: UACC-257 melanoma
OVCAR-3 ovarian = tested on: OVCAR-3 ovarian
HCT-15 colon = tested on: HCT-15 colon
EKVX NSCLC = tested on: EKVX NSCLC
SNB-75 CNS = tested on: SNB-75 CNS
OVCAR-8 ovarian = tested on: OVCAR-8 ovarian
T-47D breast = tested on: T-47D breast
SK-MEL-5 melanoma = tested on: SK-MEL-5 melanoma
786-0 renal = tested on: 786-0 renal
K-562 leukemia = tested on: K-562 leukemia
CCRF-CEM leukemia = tested on: CCRF-CEM leukemia
HCC-2998 colon = tested on: HCC-2998 colon
NCI-H226 lung = tested on: NCI-H226 lung
COLO 205 colon = tested on: COLO 205 colon
HS 578T breast = tested on: HS 578T breast
SK-MEL-28 melanoma = tested on: SK-MEL-28 melanoma
U251 CNS = tested on: U251 CNS
SK-OV-3 ovarian = tested on: SK-OV-3 ovarian
KM12 colon = tested on: KM12 colon
OVCAR-4 ovarian = tested on: OVCAR-4 ovarian
SR leukemia = tested on: SR leukemia
CAKI-1 renal = tested on: CAKI-1 renal
OVCAR-5 ovarian = tested on: OVCAR-5 ovarian
SW-620 colon = tested on: SW-620 colon
RPMI-8226 leukemia = tested on: RPMI-8226 leukemia
MCF7 breast = tested on: MCF7 breast
SNB-19 CNS = tested on: SNB-19 CNS
MOLT-4 leukemia = tested on: MOLT-4 leukemia
HT29 colon = tested on: HT29 colon
A498 renal = tested on: A498 renal
ACHN renal = tested on: ACHN renal
HOP-92 NSCLC = tested on: HOP-92 NSCLC
SF-295 CNS = tested on: SF-295 CNS
SF-268 CNS = tested on: SF-268 CNS
SF-539 CNS = tested on: SF-539 CNS
HCT-116 colon = tested on: HCT-116 colon
HOP-62 NSCLC = tested on: HOP-62 NSCLC
BT-549 breast = tested on: BT-549 breast
UACC-62 melanoma = tested on: UACC-62 melanoma
UO-31 renal = tested on: UO-31 renal
MDA-MB-468 breast = tested on: MDA-MB-468 breast
LOX IMVI melanoma = tested on: LOX IMVI melanoma
M14 melanoma = tested on: M14 melanoma
HL-60(TB) leukemia = tested on: HL-60(TB) leukemia
NCI-H23 lung = tested on: NCI-H23 lung
MDA-MB-231 breast = tested on: MDA-MB-231 breast
NCI/ADR-RES ovarian = tested on: NCI/ADR-RES ovarian
SK-MEL-2 melanoma = tested on: SK-MEL-2 melanoma

## Cc1ccc(C(SCCNCc2cc(N(C)C)ccn2)(c2ccccc2)c2ccccc2)cc1
NCI-H522 lung
  GI50: 2.34 µM
  TGI: 6.63 µM
MALME-3M melanoma
  GI50: 1.75 µM
  TGI: 3.29 µM
MDA-MB-435
  GI50: 1.55 µM
  TGI: 4.67 µM
PC-3 prostate
  GI50: 2.63 µM
  TGI: 11.9 µM
IGROV1 ovarian
  GI50: 3.81 µM
  TGI: 16.1 µM
RXF 393 renal
  GI50: 3.03 µM
  TGI: 12.5 µM
TK-10 renal
  GI50: 4.68 µM
  TGI: 17.3 µM
DU-145 prostate
  GI50: 3.54 µM
  TGI: 12.5 µM
SN12C renal
  GI50: 3.94 µM
  TGI: 14.6 µM
A549 NSCLC
  GI50: 4.13 µM
  TGI: 18 µM
NCI-H460 lung
  GI50: 3.02 µM
  TGI: 9.9 µM
UACC-257 melanoma
  GI50: 4.27 µM
  TGI: 15.4 µM
OVCAR-3 ovarian
  GI50: 2.65 µM
  TGI: 10.3 µM
HCT-15 colon
  GI50: 0.496 µM
  TGI: 1.76 µM
EKVX NSCLC
  GI50: 1.49 µM
  TGI: 3.9 µM
SNB-75 CNS
  GI50: 1.96 µM
  TGI: 12.4 µM
OVCAR-8 ovarian
  GI50: 3.3 µM
  TGI: 20 µM
T-47D breast
  GI50: 2.81 µM
  TGI: 11 µM
SK-MEL-5 melanoma
  GI50: 3.59 µM
  TGI: 12.8 µM
786-0 renal
  GI50: 1.88 µM
  TGI: 3.83 µM
K-562 leukemia
  GI50: 2.22 µM
  TGI: 7.73 µM
CCRF-CEM leukemia
  GI50: 2.03 µM
  TGI: 8.53 µM
HCC-2998 colon
  GI50: 1.42 µM
  TGI: 2.75 µM
NCI-H226 lung
  GI50: 14 µM
  TGI: 28.1 µM
COLO 205 colon
  GI50: 1.7 µM
  TGI: 3.17 µM
HS 578T breast
  GI50: 2.58 µM
  TGI: 10.5 µM
SK-MEL-28 melanoma
  GI50: 5.56 µM
  TGI: 17.8 µM
U251 CNS
  GI50: 2.69 µM
  TGI: 10.4 µM
SK-OV-3 ovarian
  GI50: 3.84 µM
  TGI: 14.4 µM
KM12 colon
  GI50: 3.34 µM
  TGI: 12 µM
OVCAR-4 ovarian
  GI50: 4.4 µM
  TGI: 20.3 µM
SR leukemia
  GI50: 1.34 µM
  TGI: 9.42 µM
CAKI-1 renal
  GI50: 3.28 µM
  TGI: 15.5 µM
OVCAR-5 ovarian
  GI50: 5.19 µM
  TGI: 17.9 µM
SW-620 colon
  GI50: 2.52 µM
  TGI: 11.4 µM
RPMI-8226 leukemia
  GI50: 2.08 µM
  TGI: 5.48 µM
MCF7 breast
  GI50: 0.373 µM
  TGI: 1.57 µM
SNB-19 CNS
  GI50: 4.42 µM
  TGI: 16.3 µM
MOLT-4 leukemia
  GI50: 2.38 µM
  TGI: 6.9 µM
HT29 colon
  GI50: 1.98 µM
  TGI: 4.17 µM
A498 renal
  GI50: 13.4 µM
  TGI: 27 µM
ACHN renal
  GI50: 4.72 µM
  TGI: 17.3 µM
HOP-92 NSCLC
  GI50: 1.85 µM
  TGI: 8.82 µM
SF-295 CNS
  GI50: 1.46 µM
  TGI: 2.86 µM
SF-268 CNS
  GI50: 4.46 µM
  TGI: 18.7 µM
SF-539 CNS
  GI50: 2.2 µM
  TGI: 4.89 µM
HCT-116 colon
  GI50: 1.23 µM
  TGI: 5.22 µM
HOP-62 NSCLC
  GI50: 3.26 µM
  TGI: 14.3 µM
BT-549 breast
  GI50: 2.94 µM
  TGI: 7.87 µM
UACC-62 melanoma
  GI50: 9.9 µM
  TGI: 21.8 µM
UO-31 renal
  GI50: 2.96 µM
  TGI: 16.2 µM
MDA-MB-468 breast
  GI50: 2.35 µM
  TGI: 6.87 µM
LOX IMVI melanoma
  GI50: 1.42 µM
  TGI: 2.77 µM
M14 melanoma
  GI50: 1.55 µM
  TGI: 3.5 µM
HL-60(TB) leukemia
  GI50: 1.73 µM
  TGI: 4.19 µM
NCI-H23 lung
  GI50: 1.72 µM
  TGI: 3.32 µM
MDA-MB-231 breast
  GI50: 2.35 µM
  TGI: 6.33 µM

## O=C(Nc1cccc(C(F)(F)F)c1)c1cncc(C#Cc2cnc3ccc(N4CCOCC4)nn23)c1
NCI/ADR-RES ovarian
  GI50: 9.21 µM
  TGI: 44.6 µM
NCI-H522 lung
  GI50: 9.08 µM
  TGI: 24.5 µM
MALME-3M melanoma
  GI50: 4.24 µM
  TGI: 18.7 µM
MDA-MB-435
  GI50: 4.33 µM
  TGI: 18.2 µM
PC-3 prostate
  GI50: 10.8 µM
  TGI: 72.6 µM
IGROV1 ovarian
  GI50: 2.08 µM
  TGI: 12.4 µM
RXF 393 renal
  GI50: 2.36 µM
  TGI: 6.36 µM
TK-10 renal
  GI50: 6.98 µM
  TGI: 51.9 µM
DU-145 prostate
  GI50: 4.3 µM
  TGI: 80 µM
SN12C renal
  GI50: 2.49 µM
  TGI: 25.3 µM
A549 NSCLC
  GI50: 8.38 µM
  TGI: > 86.8 µM
NCI-H460 lung
  GI50: 11 µM
  TGI: 27.4 µM
UACC-257 melanoma
  GI50: 10.1 µM
  TGI: 56.6 µM
OVCAR-3 ovarian
  GI50: 8.91 µM
  TGI: 52.6 µM
HCT-15 colon
  GI50: 6.58 µM
  TGI: 51.2 µM
EKVX NSCLC
  GI50: 4.49 µM
  TGI: 21 µM
SNB-75 CNS
  GI50: 1.76 µM
  TGI: 7.71 µM
OVCAR-8 ovarian
  GI50: 5.9 µM
  TGI: 82.2 µM
T-47D breast
  GI50: 9.23 µM
  TGI: 62.1 µM
SK-MEL-5 melanoma
  GI50: 11.2 µM
  TGI: 22.8 µM
786-0 renal
  GI50: 8.11 µM
  TGI: 42.9 µM
K-562 leukemia
  GI50: 1.89 µM
  TGI: > 86.8 µM
CCRF-CEM leukemia
  GI50: 5.21 µM
  TGI: 48.8 µM
HCC-2998 colon
  GI50: 5.97 µM
  TGI: 35.6 µM
NCI-H226 lung
  GI50: 1.7 µM
  TGI: > 86.8 µM
COLO 205 colon
  GI50: 3.2 µM
  TGI: 11.4 µM
HS 578T breast
  GI50: 1.62 µM
  TGI: 5.45 µM
SK-MEL-28 melanoma
  GI50: 4.85 µM
  TGI: 23 µM
U251 CNS
  GI50: 15.4 µM
  TGI: 67.2 µM
SK-OV-3 ovarian
  GI50: 7.01 µM
  TGI: 48.8 µM
KM12 colon
  GI50: 0.00868 µM
  TGI: 14.1 µM
OVCAR-4 ovarian
  GI50: 15 µM
  TGI: > 86.8 µM
SR leukemia
  GI50: 2.94 µM
  TGI: > 86.8 µM
CAKI-1 renal
  GI50: 4.23 µM
  TGI: 47.4 µM
OVCAR-5 ovarian
  GI50: 2.74 µM
  TGI: 38.6 µM
SW-620 colon
  GI50: 3.03 µM
  TGI: > 86.8 µM
RPMI-8226 leukemia
  GI50: 12.5 µM
  TGI: 44.9 µM
MCF7 breast
  GI50: 2.76 µM
  TGI: 26.4 µM
SNB-19 CNS
  GI50: 17.1 µM
  TGI: 49.8 µM
MOLT-4 leukemia
  GI50: 14.6 µM
  TGI: > 86.8 µM
HT29 colon
  GI50: 3.12 µM
  TGI: 20.8 µM
A498 renal
  GI50: 5.53 µM
  TGI: 16.6 µM
ACHN renal
  GI50: 3.67 µM
  TGI: 42.3 µM
HOP-92 NSCLC
  GI50: 1.24 µM
  TGI: 3.47 µM
SF-295 CNS
  GI50: 11 µM
  TGI: 29.8 µM
SF-268 CNS
  GI50: 4.58 µM
  TGI: 34.8 µM
SF-539 CNS
  GI50: 1.11 µM
  TGI: 3.01 µM
HCT-116 colon
  GI50: 1.92 µM
  TGI: 13.4 µM
HOP-62 NSCLC
  GI50: 2.39 µM
  TGI: 35.4 µM
BT-549 breast
  GI50: 5.13 µM
  TGI: 26.3 µM
UACC-62 melanoma
  GI50: 2.74 µM
  TGI: 13.4 µM
UO-31 renal
  GI50: 3.31 µM
  TGI: 19.2 µM
MDA-MB-468 breast
  GI50: 12.8 µM
  TGI: 27 µM
LOX IMVI melanoma
  GI50: 2.55 µM
  TGI: 11.6 µM
M14 melanoma
  GI50: 3.47 µM
  TGI: 14.8 µM
SK-MEL-2 melanoma
  GI50: 3.87 µM
  TGI: 13.6 µM
HL-60(TB) leukemia
  GI50: 0.834 µM
  TGI: 42.3 µM
NCI-H23 lung
  GI50: 2.38 µM
  TGI: 11.7 µM
MDA-MB-231 breast
  GI50: 1.13 µM
  TGI: 9.33 µM
